Data reported in PubChem BioAssay AID328 (DTP/NCI, 2004).
Several values for one entry are separate records, joined by “and”; a condition that tells them apart may be missing. Equal values may be shown once. Inconclusive results and toxic doses are left out. The calls were made as follows: active = survival T/C of 150% or more; inactive = T/C below 125% in these data.

System: BDF1 mice, P388 leukemia ip, median survival T/C
Experiment: NCI In Vivo Anticancer Drug Screen. Data for tumor model P388 Leukemia (intraperitoneal) in B6D2F1 (BDF1) mice
Details: endpoint: median survival time, higher = longer survival
Procedure, shortened: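 Compound-treated tumour-bearing mice were compared with vehicle-treated controls. Survival was recorded, and the value is the treated-group measurement divided by the control-group measurement (T/C).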

[1] = dose: 12.5 mg/kg/injection, schedule: Q01DX009 (ip), vehicle: saline with Tween-80
[2] = dose: 25.0 mg/kg/injection, schedule: Q01DX009 (ip), vehicle: saline with Tween-80
[3] = dose: 50.0 mg/kg/injection, schedule: Q01DX009 (ip), vehicle: saline with Tween-80
[4] = dose: 100.0 mg/kg/injection, schedule: Q01DX009 (ip), vehicle: saline with Tween-80
[5] = dose: 200.0 mg/kg/injection, schedule: Q01DX009 (ip), vehicle: saline with Tween-80
[6] = dose: 25.0 mg/kg/injection, schedule: Q01DX009 (ip), vehicle: saline
[7] = dose: 25.0 mg/kg/injection, schedule: Q04DX003 (ip), vehicle: saline
[8] = dose: 50.0 mg/kg/injection, schedule: Q01DX009 (ip), vehicle: saline
[9] = dose: 50.0 mg/kg/injection, schedule: Q04DX003 (ip), vehicle: saline
[10] = dose: 100.0 mg/kg/injection, schedule: Q01DX009 (ip), vehicle: saline
[11] = dose: 200.0 mg/kg/injection, schedule: Q01DX009 (ip), vehicle: saline
[12] = dose: 50.0 mg/kg/injection, schedule: Q01DX005 (ip), vehicle: saline with Tween-80

Measured: T/C

CC1(C)CC(=O)OC(=O)C1
inactive: dose: 3.13 mg/kg/injection, schedule: Q01DX009 (ip), vehicle: saline with Tween-80 93 % of control | dose: 6.25 mg/kg/injection, schedule: Q01DX009 (ip), vehicle: saline with Tween-80 100 % of control | [1] 95 % of control | [2] 105 % of control

O=C(/C=C/c1ccc(OCc2ccccc2)cc1)c1ccc(F)cc1
inactive: [3] 89 % of control | [4] 98 % of control | [5] 89 % of control

O=[N+]([O-])c1ccc(N2CCCCC2)c([N+](=O)[O-])c1
inactive: dose: 12.5 mg/kg/injection, schedule: Q01DX009 (ip), vehicle: saline 110 % of control | [6] 109 % of control | [7] 121 % of control | [8] 116 % of control | [9] 114 % of control | [10] 100 % of control | dose: 100.0 mg/kg/injection, schedule: Q04DX003 (ip), vehicle: saline 112 % of control | [11] 110 % of control | dose: 200.0 mg/kg/injection, schedule: Q04DX003 (ip), vehicle: saline 123 % of control | dose: 400.0 mg/kg/injection, schedule: Q01DX009 (ip), vehicle: saline 110 % of control | dose: 400.0 mg/kg/injection, schedule: Q04DX003 (ip), vehicle: saline 102 % of control

COC1=C(OC)C23CCc4ccc(OC)c(O)c4C2(CCN3C)CC1=O (stereo not given)
inactive: dose: 50.0 mg/kg/injection, schedule: Q01DX010 (ip), vehicle: carboxymethylcellulose (CMC) 88 % of control | dose: 100.0 mg/kg/injection, schedule: Q01DX010 (ip), vehicle: carboxymethylcellulose (CMC) 100 % of control

C=C1C(=O)CCC1/C=C\C (stereo not given)
inactive: [12] 97 % of control

O=C(Nc1cc(Cl)ccc1C(=O)O)c1cccc(C[n+]2ccccc2)c1
inactive: [12] 111 % of control | dose: 100.0 mg/kg/injection, schedule: Q01DX005 (ip), vehicle: saline with Tween-80 111 % of control

C/C=C(\C)C(=O)OC1C(=O)OC2CC3C(C)=CC(=O)C(O)C3(C)C3C4(O)OCC23C1C(C)C4O (stereo not given)
inactive: dose: 0.06 mg/kg/injection, schedule: Q01DX009 (ip), vehicle: saline with Tween-80 89 % of control | dose: 0.12 mg/kg/injection, schedule: Q01DX009 (ip), vehicle: saline with Tween-80 104 % of control | dose: 0.25 mg/kg/injection, schedule: Q01DX009 (ip), vehicle: saline with Tween-80 98 % of control | dose: 0.5 mg/kg/injection, schedule: Q01DX009 (ip), vehicle: saline with Tween-80 107 % of control | dose: 1.0 mg/kg/injection, schedule: Q01DX009 (ip), vehicle: saline with Tween-80 103 % of control | dose: 2.0 mg/kg/injection, schedule: Q01DX009 (ip), vehicle: saline with Tween-80 104 % of control | dose: 4.0 mg/kg/injection, schedule: Q01DX009 (ip), vehicle: saline with Tween-80 110 % of control | dose: 8.0 mg/kg/injection, schedule: Q01DX009 (ip), vehicle: saline with Tween-80 100 % of control

COc1cccc(CC(=O)C(=O)O)c1
inactive: dose: 50.0 mg/kg/injection, schedule: Q01DX009 (ip), vehicle: Klucel (hydroxypropylcellulose) (HPC) 95 % of control | dose: 50.0 mg/kg/injection, schedule: Q04DX003 (ip), vehicle: Klucel (hydroxypropylcellulose) (HPC) 100 % of control | dose: 100.0 mg/kg/injection, schedule: Q01DX009 (ip), vehicle: Klucel (hydroxypropylcellulose) (HPC) 104 % of control | dose: 100.0 mg/kg/injection, schedule: Q04DX003 (ip), vehicle: Klucel (hydroxypropylcellulose) (HPC) 115 % of control | dose: 200.0 mg/kg/injection, schedule: Q01DX009 (ip), vehicle: Klucel (hydroxypropylcellulose) (HPC) 90 % of control | dose: 200.0 mg/kg/injection, schedule: Q04DX003 (ip), vehicle: Klucel (hydroxypropylcellulose) (HPC) 110 % of control

Cc1nc2ccccc2nc1CC(O)(c1ccccc1)c1ccccc1
inactive: [3] 97 % of control | [4] 103 % of control | [5] 100 % of control

COc1cccc2c1C(=O)c1c(O)c3c(c(O)c1C2=O)CC(O)(C(C)=O)CC3OC1CC(NC(=O)CNC(=O)CN(C)C)C(O)C(C)O1 (stereo not given)
inactive: dose: 1.56 mg/kg/injection, schedule: Q01DX009 (ip), vehicle: water 101 % of control | dose: 3.13 mg/kg/injection, schedule: Q01DX009 (ip), vehicle: water 92 % of control | dose: 6.25 mg/kg/injection, schedule: Q01DX009 (ip), vehicle: water 101 % of control | dose: 12.5 mg/kg/injection, schedule: Q01DX009 (ip), vehicle: water 91 % of control

COc1cc(C2=CC(OC)(OC)C=C(C(C)(C)C)C2=O)c(O)c(C(C)(C)C)c1
inactive: [3] 105 % of control | [4] 108 % of control | [5] 112 % of control

CS(=O)(=O)Nc1ccc(C(=O)CCN2CCCCCC2)cc1
inactive: [6] 108 % of control and 110 % of control | [8] 110 % of control and 112 % of control and 113 % of control | [10] 117 % of control | [11] 117 % of control

CCS(=O)(=O)CC
inactive: dose: 100.0 mg/kg/injection, schedule: Q04DX003 (ip), vehicle: saline sonified 95 % of control | dose: 200.0 mg/kg/injection, schedule: Q04DX003 (ip), vehicle: saline sonified 100 % of control | dose: 400.0 mg/kg/injection, schedule: Q04DX003 (ip), vehicle: saline sonified 100 % of control

CCCNC(=O)Nc1ccc(C)c(Cl)c1
inactive: dose: 100.0 mg/kg/injection, schedule: Q04DX003 (ip), vehicle: saline with Tween-80 104 % of control | dose: 200.0 mg/kg/injection, schedule: Q04DX003 (ip), vehicle: saline with Tween-80 100 % of control | dose: 400.0 mg/kg/injection, schedule: Q04DX003 (ip), vehicle: saline with Tween-80 95 % of control

O=C(O)C1CCC=CCC1
inactive: dose: 50.0 mg/kg/injection, schedule: Q04DX003 (ip), vehicle: other 100 % of control | dose: 100.0 mg/kg/injection, schedule: Q04DX003 (ip), vehicle: other 100 % of control | dose: 200.0 mg/kg/injection, schedule: Q04DX003 (ip), vehicle: other 109 % of control

CCCCN(CCCC)CC(O)c1cc(Cl)cc2c1-c1ccc(Cl)cc1C2 (stereo not given)
inactive: [3] 105 % of control | [4] 114 % of control | [5] 98 % of control

COc1ccc2c(c1)CCC1(C)C2=CC(=O)/C1=C\[O-].COc1ccc2c(c1)CCC1(C)C2=CC(=O)/C1=C\[O-].[Cu+2] (stereo not given)
inactive: [2] 95 % of control | [3] 95 % of control | [4] 95 % of control

Cc1cc(O)c2cc3c(O)c(O)ccc3cc2c1
inactive: dose: 0.5 mg/kg/injection, schedule: Q01DX010 (ip), vehicle: saline 100 % of control | dose: 1.0 mg/kg/injection, schedule: Q01DX010 (ip), vehicle: saline 109 % of control | dose: 2.0 mg/kg/injection, schedule: Q01DX010 (ip), vehicle: saline 118 % of control and 122 % of control | dose: 4.0 mg/kg/injection, schedule: Q01DX010 (ip), vehicle: saline 122 % of control | dose: 31.3 micrograms/kg/injection, schedule: Q01DX010 (ip), vehicle: saline 109 % of control | dose: 125.0 micrograms/kg/injection, schedule: Q01DX010 (ip), vehicle: saline 90 % of control | dose: 250.0 micrograms/kg/injection, schedule: Q01DX010 (ip), vehicle: saline 90 % of control

Cc1ccc(NCCNCC(C)(C)O)c2c(=O)c3ccccc3sc12
inactive: dose: 12.5 mg/kg/injection, schedule: Q04DX003 (ip), vehicle: saline 100 % of control | [7] 120 % of control | [9] 120 % of control | dose: 75.0 mg/kg/injection, schedule: Q04DX003 (ip), vehicle: saline 100 % of control and 115 % of control and 118 % of control | dose: 115.0 mg/kg/injection, schedule: Q04DX003 (ip), vehicle: saline 115 % of control and 120 % of control | dose: 170.0 mg/kg/injection, schedule: Q04DX003 (ip), vehicle: saline 115 % of control and 122 % of control

O=C(CBr)CC(=O)Nc1ccccc1
inactive: [1] 100 % of control
